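48-hour exposure; five concentrations; linearly interpolated endpoints. Abbreviation: GI50, concentration required for 50% inhibition of growth. TGI is the concentration that stops growth completely.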
Assays:
Experiment in all cases: DTP human tumour cell line panel, 48 h
SW-620 colon = test system: SW-620 colon
NCI-H23 lung = test system: NCI-H23 lung
OVCAR-3 ovarian = test system: OVCAR-3 ovarian
NCI-H522 lung = test system: NCI-H522 lung
EKVX NSCLC = test system: EKVX NSCLC
SK-MEL-5 melanoma = test system: SK-MEL-5 melanoma
M14 melanoma = test system: M14 melanoma
IGROV1 ovarian = test system: IGROV1 ovarian
MDA-MB-435 = test system: MDA-MB-435
MCF7 breast = test system: MCF7 breast

Row | SMILES | TGI (SW-620 colon) | TGI (NCI-H23 lung) | TGI (OVCAR-3 ovarian) | TGI (NCI-H522 lung) | TGI (EKVX NSCLC) | TGI (SK-MEL-5 melanoma) | TGI (M14 melanoma) | TGI (IGROV1 ovarian) | TGI (MDA-MB-435) | GI50 (SW-620 colon) | GI50 (NCI-H23 lung) | GI50 (MCF7 breast) | TGI (MCF7 breast) | GI50 (MDA-MB-435) | GI50 (OVCAR-3 ovarian) | GI50 (NCI-H522 lung) | GI50 (SK-MEL-5 melanoma) | GI50 (M14 melanoma) | GI50 (IGROV1 ovarian) | GI50 (EKVX NSCLC)
1 | Clc1ccc(SC(/C=C/NNC2=NC(c3ccccc3)C(c3ccccc3)=NN2)c2ccccc2)cc1 (centres undefined) | > 100 µM | 61.6 µM | 60.5 µM | 73.7 µM | > 100 µM | 31.2 µM | 46 µM | > 100 µM | – | – | – | – | – | – | – | – | – | – | – | –
2 | CN(C)CC(C)(C)C(=O)/C=C/c1ccc(/C=C/C(=O)C(C)(C)CN(C)C)cc1 | 2.17 µM | 3.93 µM | 2.59 µM | 0.292 µM | 3.26 µM | 5.13 µM | 3.21 µM | 3.33 µM | – | – | – | – | – | – | – | – | – | – | – | –
3 | O=C1c2ccccc2C(Br)(Br)c2ccccc21 | > 31.6 µM | > 100 µM | > 31.6 µM | > 31.6 µM | > 100 µM | > 31.6 µM | > 31.6 µM | > 31.6 µM | – | – | – | – | – | – | – | – | – | – | – | –
4 | O=C(CP(=O)(O)O)NC(CC(=O)OCc1ccccc1)C(=O)OCc1ccccc1 (centres undefined) | > 100 µM | > 100 µM | > 100 µM | > 100 µM | > 100 µM | > 100 µM | > 100 µM | > 100 µM | > 100 µM | – | – | – | – | – | – | – | – | – | – | –
5 | Nc1ccc(C2=NN(c3ccccc3)C(c3ccc(Cl)cc3)C2)cc1 (centres undefined) | 3.35 µM | 5.09 µM | 6.88 µM | 3.27 µM | – | 8.48 µM | 5.34 µM | 8.15 µM | 6.58 µM | 1.67 µM | 2.12 µM | 1.32 µM | 3.82 µM | 2.51 µM | 2.59 µM | 1.51 µM | 2.71 µM | 2.35 µM | 2.89 µM | –
6 | C[N-]c1nnnn1C.[Au+].c1ccc([PH+](c2ccccc2)c2ccccc2)cc1 | – | 4.48 µM | 6.53 µM | – | 8.99 µM | 3.65 µM | 5.51 µM | 9.99 µM | – | – | 1.97 µM | – | – | – | 2.58 µM | – | 1.59 µM | 2.34 µM | 2.76 µM | 4.32 µM
7 | COc1ccc(-c2cn[nH]c2-c2cc(OC)c3c(c2)OCO3)cc1 | 23.2 µM | 14.7 µM | 0.596 µM | 1.68 µM | – | 8.7 µM | 12.9 µM | 26.7 µM | 0.0838 µM | 0.141 µM | 0.43 µM | 0.116 µM | 15.8 µM | 0.0267 µM | 0.196 µM | 0.0555 µM | 0.277 µM | 0.207 µM | 0.984 µM | –
8 | O=C(O)CCCCCCC[C@H]1S[C@H]1CCCCCCO | – | > 100 µM | > 100 µM | – | > 100 µM | > 100 µM | > 100 µM | > 100 µM | – | – | – | – | – | – | – | – | – | – | – | –
9 | CC(C)CC(NC(=O)c1cccc(O)c1O)C(=O)NCc1cc(CNC(=O)C(CC(C)C)NC(=O)c2cccc(O)c2O)cc(CNC(=O)C(CC(C)C)NC(=O)c2cccc(O)c2O)c1 (centres undefined) | 61.8 µM | 36.1 µM | 19.7 µM | 16.8 µM | 69.5 µM | 30.4 µM | – | 27.1 µM | – | – | – | – | – | – | – | – | – | – | – | –
10 | CCOC(=O)N1CCN(c2nc(Nc3cc(C)[nH]n3)c3ccccc3n2)CC1 | 45.2 µM | – | 37.3 µM | 30.7 µM | – | 21.4 µM | 28.9 µM | 35.5 µM | 62.3 µM | 2.1 µM | – | 4.61 µM | > 100 µM | 0.829 µM | 7.69 µM | 2.82 µM | 7.94 µM | 9.16 µM | 0.638 µM | –
11 | CC(=O)[CH-]C(C)=O.CC(=O)[CH-]C(C)=O.[CH2-]CCC.[CH2-]CCC.[Sn+4] | 0.375 µM | 1.39 µM | 1.96 µM | 0.122 µM | 2.27 µM | 2.15 µM | 1.86 µM | 2.66 µM | – | 0.148 µM | 0.315 µM | – | – | – | 0.707 µM | 0.0586 µM | 0.848 µM | 0.608 µM | 1.23 µM | 0.901 µM
12 | [Cl-].[O-]/N=C(\c1ccccc1)c1ccccn1.[O-]/N=C(\c1ccccc1)c1ccccn1.[O-]/N=C(\c1ccccc1)c1ccccn1.[Sm+3] | > 100 µM | 87.1 µM | 73.7 µM | 75.3 µM | > 100 µM | 47 µM | 40.6 µM | 79.6 µM | – | 34.5 µM | 32.8 µM | – | – | – | 18 µM | 24.6 µM | 20.5 µM | 19.6 µM | 27.8 µM | 29.4 µM
13 | COCCCNC(=O)C1C(=O)N(CCCOC)C(=O)/C1=N\N (centres undefined) | > 100 µM | > 100 µM | > 100 µM | > 100 µM | > 100 µM | > 100 µM | > 100 µM | – | – | – | – | – | – | – | – | – | – | – | – | –
14 | COc1ccc(OC)c(/C(C)=N/NC(N)=S)c1 | > 100 µM | > 100 µM | > 100 µM | – | > 100 µM | > 100 µM | > 100 µM | > 100 µM | – | – | – | – | – | – | – | – | – | – | – | –
15 | C=C(c1ccc2nc(NC(=O)OC)[nH]c2c1)c1cccs1 | > 100 µM | – | – | – | > 100 µM | > 20.7 µM | > 100 µM | > 100 µM | – | – | – | – | > 100 µM | – | – | – | – | – | – | –
16 | CC(C)CCC(=O)c1ccoc1 | > 100 µM | > 100 µM | > 100 µM | – | > 100 µM | > 100 µM | > 100 µM | > 100 µM | > 100 µM | – | – | – | > 100 µM | – | – | – | – | – | – | –
17 | Cc1sc2nc(-c3ccncc3)c(/C=N/N=C(N)N)n2c1C | > 100 µM | > 100 µM | 89.7 µM | – | > 100 µM | > 100 µM | > 100 µM | – | > 100 µM | 34.7 µM | 48.4 µM | – | – | 26.2 µM | 26 µM | – | 38.3 µM | 60.2 µM | – | 75.9 µM
18 | Cc1nn(-c2nc3ccccc3[nH]2)c(N)c1-c1ccc(Cl)cc1 | > 100 µM | > 100 µM | > 100 µM | > 100 µM | – | > 100 µM | > 100 µM | > 100 µM | > 100 µM | 4.58 µM | 5.23 µM | 4.31 µM | > 100 µM | 4.6 µM | 7.66 µM | 4.04 µM | 4.08 µM | 6.68 µM | 7.75 µM | –
19 | O=c1nc(/C=C/c2ccccc2Cl)cc2n1CCN2CCO | > 100 µM | – | 79.8 µM | 47.4 µM | > 100 µM | – | > 100 µM | > 100 µM | – | – | – | – | – | – | – | – | – | – | – | –

Source: PubChem BioAssay (NCI)
